Consider 80 compounds from the METLIN SMRT retention time set (Domingo-Almenara et al. 2019).

A short description of the data set: gradient 5% acetonitrile 3 min, to 50% in 2 min, to 85% in 15 min, held 3 min, 100 µL/min. The conditions noted are these: column: Zorbax Extend-C18 2.1 x 50 mm; eluents: water / acetonitrile, 0.1% formic acid. The procedure, abridged: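 Over 3 months, pure standards in mixtures of ~100 molecules were run by HPLC coupled to a quadrupole time-of-flight mass spectrometer in positive and negative ionization mode. The column was a Zorbax Extend-C18 (2.1 × 50 mm, 1.8 μm) at 100 μL/min, eluted with water and acetonitrile each holding 0.1% formic acid, with 40 μL dead and 900 μL dwell volumes. Retention time was determined from adduct peaks chosen by software and checked manually.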
Take `CCC(C(=O)N1CCN(c2ccccn2)CC1)n1nc(C)c2sc3ccccc3c2c1=O` (stereo not given): the RP-LC retention time was 705 s. The value for `Cc1ccc(C)c(NC(=O)Cn2cccc(-c3nc(-c4ccc(Br)cc4)no3)c2=O)c1` was 1030 s; that for `Cc1nn(C)c(=O)c2cc(S(=O)(=O)N3CCC(Cc4ccccc4)CC3)cn12` was 943 s; that for `CC1CCN(c2cc(-c3noc(C(=O)N4CCc5ccccc5C4)n3)ccn2)CC1` was 1010 s. The value for `Cc1nn(-c2ccccc2)c(C)c1S(=O)(=O)Nc1ccc(S(N)(=O)=O)cc1` was 731 s; that for `Cc1ccc(CNC(=O)c2cn3ccc(C)cc3n2)cc1` was 670 s. In the case of `CC(=O)N(Cc1nn(C)c2c1CN(S(=O)(=O)c1cc(C)cc(C)c1)CC2)c1ccccc1`, the RP-LC retention time is 856 s.

As for `CCNC(=O)c1sc(Nc2cccc(C)n2)nc1C`, the RP-LC retention time is 657 s. The value for `Cc1noc(-c2cc(=O)n(CC(=O)Nc3ccccc3)c3ccccc23)n1` was 840 s; that for `CCC(=O)N1C[C@@H]2C(=O)N(CCc3ccccc3)C(=O)[C@@H]2C1` was 702 s; that for `Cc1ccc2c(=O)c3c([nH]c2c1C)CCN(CC(=O)Nc1cccc(Cl)c1C)C3` was 661 s. The value for `COc1ccccc1N1CCN(c2cc(SCC(=O)Nc3cccc(C)c3C)ncn2)CC1` was 1030 s.

As to `O=C(c1ccc(Cl)s1)N1CCN(CC(O)c2cccs2)CC1` (stereo not given), the RP-LC retention time was 572 s.

With `CC(=O)c1ccc(C)cc1OC(=O)c1cccc2nc(C)oc12`, the RP-LC retention time was determined as 661 s.

Turning to `CCc1nc2cc(-c3noc(-c4ccc(C)cc4)n3)ccc2o1`, the RP-LC retention time came out at 1270 s. With `Cc1ccc(C)c(-c2coc(-c3ccc(NC(=O)c4sccc4C)cc3)n2)c1`, the RP-LC retention time is 1330 s. For `Cc1ccc(Nc2nc(-c3ccc(Cl)cc3)cs2)nc1` the value was 1050 s.

Compound `O=C(Nc1ccc(F)cc1F)C1CCCN(S(=O)(=O)Cc2ccc(F)cc2)C1` (stereo not given) had an RP-LC retention time of 976 s.

In the case of `Cc1ccc(NC(=O)Cn2nc(N3CCOCC3)c3ccccc3c2=O)cc1Cl`, the RP-LC retention time worked out at 780 s.

Consider `CCCNC(=O)C1CCCN(c2cnc3nc(CC)c(CC)nc3c2)C1` (stereo not given), for which the RP-LC retention time was determined as 755 s. In turn, `COc1ccc(OC)c(NC(=O)CSC2CCc3ccccc3NC2=O)c1` (stereo not given) displayed an RP-LC retention time of 797 s. The value for `O=C(c1cn2ccnc(-c3ccc(F)cc3)c2n1)N1CCN(c2ncccn2)CC1` was 756 s.

Consider `COc1ccc(Cl)cc1S(=O)(=O)N1CCC(C(=O)NCc2cccnc2)CC1`, for which the RP-LC retention time was 625 s. For `CCCc1noc(CN2N=C(C(=O)N3CCC(C)CC3)S(=O)(=O)c3ccccc32)n1` the value was 954 s; for `Cc1noc(-c2cc(=O)n(CC(=O)NCc3ccc(F)cc3Cl)c3ccccc23)n1`, 891 s; for `CC1Cc2cc(S(=O)(=O)N3CCN(c4ccccn4)CC3)ccc2N1C(=O)C1CC1` (stereo not given), 668 s. The value for `Cc1sc(NC(=O)CCC2CCCCC2)nc1-c1ccc2c(c1)N(C)C(=O)CO2` was 1290 s; that for `CC(C)C(=O)Nc1nnc(SCc2nnc(-c3ccc4c(c3)OCO4)o2)s1` was 773 s. The value for `Cc1ccc(S(=O)(=O)N2CCC(c3nc(C(=O)N4CCOCC4)c(C)o3)CC2)cc1C` was 870 s; that for `COc1cccc(CNC(=O)CSc2nccnc2N2CCSCC2)c1OC` was 824 s. Regarding `O=C(Nc1ccc(F)cc1Cl)c1c(O)c2cccnc2n(-c2ccc(F)cc2)c1=O`, the RP-LC retention time was 1300 s. For `Cc1cc(SCC(=O)N2CCCc3ccccc32)nc(C)n1` the value was 722 s; for `O=C(Cc1csc(SCC(=O)c2cccs2)n1)NCCc1c[nH]c2ccccc12`, 806 s; for `CN(C)c1ccc(C(=O)Nc2cc(-c3ccccn3)no2)cc1`, 812 s. `COC(=O)c1ccc2c(=O)n(-c3ccccc3)c(N3CCC(C)CC3)nc2c1` yielded an RP-LC retention time of 1210 s. For the compound `NS(=O)(=O)c1ccc(NS(=O)(=O)c2cc(-c3ccno3)cs2)cc1`, the RP-LC retention time came to 710 s.

On to `COc1ccc(NCc2nnc3n2CCCCC3)cc1OC`, for which the RP-LC retention time was 559 s. Compound `COc1ccccc1OCC(=O)Nc1ccc2c(c1)N(C(=O)c1ccco1)CCC2` registered an RP-LC retention time of 881 s.

`O=C(Cn1cnc2ccccc21)NCCOc1cccc2cccnc12` displayed an RP-LC retention time of 527 s. The value for `CCN(c1ccccc1)S(=O)(=O)c1cc(-c2[nH]ncc2C(=O)N(C)C)oc1C` was 739 s; that for `Cc1cc(-c2c(C)sc(C)c2S(=O)(=O)NCc2ccc(Cl)cc2)n[nH]1` was 1090 s.

The compound `O=c1c2cnc3nc(-c4ccc(Cl)cc4)nn3c2ccn1CCCO` displayed an RP-LC retention time of 714 s. For `CC(=O)c1cccc(NC(=O)c2cn(C)cc3c(=O)n(-c4ccccc4)nc2-3)c1` the value was 826 s. The value for `COC(=O)c1cnn2c(C)c(Cc3ccc(F)cc3)c(C)nc12` was 845 s; that for `CCOc1ccc(C(=O)Nc2nc(-c3cccc(Br)c3)cs2)cc1` was 1240 s. Take `CC(C)c1noc(-c2ccnc(-n3cnc(C(=O)NC4CCCC4)c3)c2)n1`: the RP-LC retention time amounted to 693 s. The value for `CCOc1ccc(S(=O)(=O)N2CC=C(c3cn(C(C)C)c4ncccc34)CC2)cc1` was 645 s; that for `O=C(c1c(F)cccc1F)N1CCN=C1SCc1cccnc1` was 582 s; that for `CCC(=O)NCCc1csc(C2CCCN(C(=O)C3(c4ccccc4)CC3)C2)n1` (stereo not given) was 736 s. `COc1ccc(CC(=O)Nc2c(C(=O)N3CCN(c4ccccn4)CC3)oc3ccccc23)cc1` gave an RP-LC retention time of 675 s. For `COc1ccc(S(=O)(=O)NCc2cccnc2-c2ccc(C)cc2)cc1` the value was 679 s. The value for `Cc1nc(-c2csc(S(=O)(=O)N3CCCC(C(=O)Nc4ccc(C)c(C)c4)C3)c2)no1` (stereo not given) was 939 s; that for `CC(C)c1ccccc1NC(=O)CN1CCN(c2ccc(Cl)cc2)C1=O` was 906 s. The value for `COc1cc2c(=O)c(C(=O)c3ccncc3)cn(CC(=O)Nc3ccc(F)cc3F)c2cc1Cl` was 711 s; that for `Cc1cccc(NC(=O)N2CCCC2C(=O)NC(C)C)c1` (stereo not given) was 690 s.

Turning to `Cc1cccc(CNc2nnc(-c3nc(C4CC4)no3)c3ccccc23)c1`, the RP-LC retention time worked out at 938 s. For `O=C(NCc1ccc(N2CCCCC2)cc1)C1CCN(c2nnc3ccccn23)CC1` the value was 545 s. Regarding `Cc1ccsc1C(=O)N1CCC2(CC1)CC(N1CCOCC1)CCO2` (stereo not given), the RP-LC retention time was 577 s. The value for `COc1ccc(CCNC(=O)CSc2nccn2Cc2ccco2)cc1OC` was 574 s; that for `CCC(C)C(=O)NC1CCN(C2=NS(=O)(=O)C(c3ccc(F)cc3)=C2C)CC1` (stereo not given) was 785 s. The value for `COc1ccccc1CC(=O)Nc1cnc(-c2cccnc2)nc1` was 663 s. For `CCn1c(C(=O)NCc2ccc(Cl)cc2)cc2sccc21` the value was 1210 s. `O=C(CN1C(=O)C2CCCCN2c2ccc(C(=O)N3CCCCC3)cc21)NC1CCCCC1` (stereo not given) showed an RP-LC retention time of 889 s. For the compound `Cc1ccc(-n2ccc(=O)c(-c3nc(-c4ccc(Cl)cc4)no3)n2)cc1`, the RP-LC retention time came out at 1030 s.

As for `CCOC(=O)C1CCN(Cc2nc3nc(C)cc(N4CCC(C)CC4)n3n2)CC1`, the RP-LC retention time came to 642 s.

Regarding `O=C(C1CCN(c2cncnc2N2CCOCC2)CC1)N1CCOCC1`, the RP-LC retention time was 556 s. For `COC(=O)C1=C(C)N(Cc2ccccc2)C(=O)NC1c1ccccc1[N+](=O)[O-]` (stereo not given) the value was 856 s. With `Cc1ccc(-n2c(=O)n(CC(=O)Nc3cccc(C)c3C)c3cccnc32)cc1`, the RP-LC retention time came to 907 s. The value for `CCCn1c(C(=O)NN2CCCC2=O)cc2c(=O)n(C)c(=O)n(C)c21` was 592 s.

The compound `CCNC(=O)Nc1ccc(OCC(=O)NCc2cccc(OC)c2)nc1` showed an RP-LC retention time of 669 s. The value for `COc1ccc(C2CCCN2C(=O)c2cccs2)cc1` (stereo not given) was 888 s. The value for `CCCN1CCN(CCCNC(=O)c2ccc3c(c2)N(C)C(=O)C2CCCCN32)CC1` (stereo not given) was 597 s; that for `CCOCCCNCc1ccc(-c2ccc(Cl)cc2)o1` was 687 s; that for `Cc1ccc(C)c(-c2csc(NC(=O)c3cccs3)n2)c1` was 1040 s. For `COc1ccc(-c2cn3c(CC(=O)N4CCN(c5ccccn5)CC4)csc3n2)cc1OC` the value was 1030 s; for `CCCCNC(=O)C1CCC(=O)N(c2cc(OC)c(OC)c(OC)c2)C1c1ccc(OC)cc1` (stereo not given), 709 s. `O=C(Cn1cccc(-c2nc(-c3ccc(F)cc3)no2)c1=O)NCc1ccccc1Br` came in with an RP-LC retention time of 898 s.

Regarding `COc1ccc(OC)c(-c2cn3ccn(-c4ccc(F)c(Cl)c4)c(=O)c3n2)c1`, the RP-LC retention time was 929 s.

Compound `O=C(NC1(c2nc(-c3cccnc3)no2)CCCCC1)c1nccc2ccccc12` gave an RP-LC retention time of 1100 s.

`COc1ccc(S(=O)(=O)N2CCc3nc[nH]c3C2)cc1` gave an RP-LC retention time of 586 s.
